According to patent US20250163054A1, “SUBSTITUTED BICYCLIC HETEROARYL COMPOUNDS USEFUL AS INHIBITORS OF TLR9” (Bristol-Myers Squibb Company, priority 2022, published 2025):

Tests used:
Format in all cases: cell-based
human TLR8 = biological target: T1, human TLR8 (Homo sapiens, UniProt Q9NR97); test: TLR7/8/9 Inhibition Reporter Assays (TLR8); conditions: HEK-Blue cells overexpressing human TLR8, SEAP reporter, stimulated with TLR8 ligand R848
T1 construct: host or cells: HEK-Blue cells (HEK293-derived reporter line)
T1 sequence (Q9NR97 27-1041): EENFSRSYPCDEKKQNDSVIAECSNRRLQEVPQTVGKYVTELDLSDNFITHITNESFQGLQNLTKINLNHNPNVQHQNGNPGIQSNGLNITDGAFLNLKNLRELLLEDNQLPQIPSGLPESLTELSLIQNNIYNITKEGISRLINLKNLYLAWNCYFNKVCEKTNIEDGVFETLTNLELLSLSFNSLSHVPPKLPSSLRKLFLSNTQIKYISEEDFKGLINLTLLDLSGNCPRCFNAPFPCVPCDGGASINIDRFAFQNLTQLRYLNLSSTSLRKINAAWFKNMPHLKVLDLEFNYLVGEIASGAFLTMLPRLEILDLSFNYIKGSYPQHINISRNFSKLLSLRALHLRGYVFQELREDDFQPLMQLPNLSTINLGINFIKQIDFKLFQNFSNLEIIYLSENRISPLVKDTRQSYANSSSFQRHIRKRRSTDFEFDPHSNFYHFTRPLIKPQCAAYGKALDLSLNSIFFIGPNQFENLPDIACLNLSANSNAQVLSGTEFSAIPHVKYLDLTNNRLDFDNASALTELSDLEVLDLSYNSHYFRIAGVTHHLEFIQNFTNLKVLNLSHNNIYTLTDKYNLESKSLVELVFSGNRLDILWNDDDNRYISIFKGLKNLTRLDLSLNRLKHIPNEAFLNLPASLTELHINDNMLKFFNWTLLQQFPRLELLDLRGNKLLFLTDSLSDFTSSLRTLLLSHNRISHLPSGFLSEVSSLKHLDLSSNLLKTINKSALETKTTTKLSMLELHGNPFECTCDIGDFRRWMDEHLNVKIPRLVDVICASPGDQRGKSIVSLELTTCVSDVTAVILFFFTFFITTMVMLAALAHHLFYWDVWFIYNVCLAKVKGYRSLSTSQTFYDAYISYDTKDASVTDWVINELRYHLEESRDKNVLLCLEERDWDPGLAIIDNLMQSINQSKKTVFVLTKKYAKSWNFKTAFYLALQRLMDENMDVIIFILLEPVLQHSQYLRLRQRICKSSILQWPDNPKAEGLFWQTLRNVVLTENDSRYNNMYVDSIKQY
In short: (§1)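 HEK-Blue cells overexpressing human TLR7, TLR8 or TLR9 with NF-κB/AP-1-driven SEAP reporter, pre-treated 60 min with compound ([…]). Stimulated with […] (TLR7), […] (TLR8) or ODN2006 200 nM (TLR9), then 22 h at 37° C; SEAP measured, % inhibition relative to agonist-plus-DMSO and known-inhibitor wells.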

human TLR9 = biological target: T2, human TLR9 (Homo sapiens, UniProt Q9NR96); test: TLR7/8/9 Inhibition Reporter Assays (TLR9); conditions: HEK-Blue cells overexpressing human TLR9, SEAP reporter, stimulated with TLR9 ligand ODN2006
T2 construct: host or cells: HEK-Blue cells (HEK293-derived reporter line)
T2 sequence (Q9NR96 26-1032): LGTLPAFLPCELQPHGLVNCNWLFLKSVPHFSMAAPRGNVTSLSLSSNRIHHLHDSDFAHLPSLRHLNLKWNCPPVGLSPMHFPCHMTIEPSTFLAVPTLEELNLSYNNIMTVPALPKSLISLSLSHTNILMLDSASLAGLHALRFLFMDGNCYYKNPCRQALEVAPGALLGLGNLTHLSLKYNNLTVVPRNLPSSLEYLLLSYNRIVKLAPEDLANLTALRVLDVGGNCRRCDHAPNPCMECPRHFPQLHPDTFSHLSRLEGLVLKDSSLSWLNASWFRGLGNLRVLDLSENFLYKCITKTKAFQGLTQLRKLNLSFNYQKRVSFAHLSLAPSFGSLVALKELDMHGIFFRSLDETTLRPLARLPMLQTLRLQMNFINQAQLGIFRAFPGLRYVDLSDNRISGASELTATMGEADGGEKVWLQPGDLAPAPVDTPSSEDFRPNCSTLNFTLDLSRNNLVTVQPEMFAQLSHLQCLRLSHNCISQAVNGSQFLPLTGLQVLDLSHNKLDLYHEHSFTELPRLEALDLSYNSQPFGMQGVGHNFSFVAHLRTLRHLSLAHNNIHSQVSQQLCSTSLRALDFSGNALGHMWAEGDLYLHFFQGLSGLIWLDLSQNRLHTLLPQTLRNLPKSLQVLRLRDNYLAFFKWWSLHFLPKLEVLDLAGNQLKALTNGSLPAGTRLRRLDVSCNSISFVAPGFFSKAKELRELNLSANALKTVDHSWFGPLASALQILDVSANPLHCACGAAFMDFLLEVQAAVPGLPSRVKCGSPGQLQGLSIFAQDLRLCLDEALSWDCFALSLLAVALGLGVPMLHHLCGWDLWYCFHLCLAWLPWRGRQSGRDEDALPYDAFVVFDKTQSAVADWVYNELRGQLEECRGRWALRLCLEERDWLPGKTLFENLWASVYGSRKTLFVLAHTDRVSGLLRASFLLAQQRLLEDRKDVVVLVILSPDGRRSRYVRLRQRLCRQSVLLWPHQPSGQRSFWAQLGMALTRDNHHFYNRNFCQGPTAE
In short: as §1

human TLR7 = biological target: T3, human TLR7 (Homo sapiens, UniProt Q9NYK1); test: TLR7/8/9 Inhibition Reporter Assays (TLR7); conditions: HEK-Blue cells overexpressing human TLR7, SEAP reporter, stimulated with TLR7 ligand gardiquimod
T3 construct: host or cells: HEK-Blue cells (HEK293-derived reporter line)
T3 sequence (Q9NYK1 27-1049): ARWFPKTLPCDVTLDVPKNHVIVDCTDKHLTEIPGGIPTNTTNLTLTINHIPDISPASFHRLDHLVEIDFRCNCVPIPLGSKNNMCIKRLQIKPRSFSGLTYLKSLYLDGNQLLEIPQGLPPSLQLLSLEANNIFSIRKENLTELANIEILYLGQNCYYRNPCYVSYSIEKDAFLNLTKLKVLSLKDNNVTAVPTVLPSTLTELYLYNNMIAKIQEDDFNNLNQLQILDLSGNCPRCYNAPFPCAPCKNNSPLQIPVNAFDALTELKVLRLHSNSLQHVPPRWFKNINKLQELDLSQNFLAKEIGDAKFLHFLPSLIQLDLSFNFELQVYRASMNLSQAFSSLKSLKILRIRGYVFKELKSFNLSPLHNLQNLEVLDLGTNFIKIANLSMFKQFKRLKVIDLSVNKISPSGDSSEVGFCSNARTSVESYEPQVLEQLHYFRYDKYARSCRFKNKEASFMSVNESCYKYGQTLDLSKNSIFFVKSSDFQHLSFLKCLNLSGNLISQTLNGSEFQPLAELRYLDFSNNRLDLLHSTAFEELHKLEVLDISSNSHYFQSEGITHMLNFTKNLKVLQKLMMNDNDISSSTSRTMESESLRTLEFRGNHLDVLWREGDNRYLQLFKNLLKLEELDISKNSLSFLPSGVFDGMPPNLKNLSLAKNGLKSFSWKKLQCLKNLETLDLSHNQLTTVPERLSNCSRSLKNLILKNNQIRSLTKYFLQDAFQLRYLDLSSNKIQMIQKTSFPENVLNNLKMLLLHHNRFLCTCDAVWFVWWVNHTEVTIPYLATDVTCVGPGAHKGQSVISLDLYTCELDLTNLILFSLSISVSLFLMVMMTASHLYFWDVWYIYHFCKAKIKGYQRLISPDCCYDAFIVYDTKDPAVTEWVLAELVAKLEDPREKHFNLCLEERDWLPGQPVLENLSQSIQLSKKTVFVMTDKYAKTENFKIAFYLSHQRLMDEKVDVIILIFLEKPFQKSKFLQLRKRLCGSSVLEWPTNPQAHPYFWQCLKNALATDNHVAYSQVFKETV
In short: as §1

Row | SMILES | IC50 (human TLR8) | IC50 (human TLR9) | IC50 (human TLR7)
1 | Cc1nc(-c2ccc(N3CCC4(CC3)CN(CC(C)(C)O)C4)cc2)cc2c1nc(-c1ccc(S(C)(=O)=O)cc1)n2C [Example 91, 1-(7-(4-(1,4-dimethyl-2-(4-(methylsulfonyl)phenyl)-1H-imidazo[4,5-c]pyridin-6-yl)phenyl)-2,7-diazaspiro[3.5]nonan-2-yl)-2-methylpropan-2-ol] | 6800 nM | 170 nM | 5500 nM
2 | Cc1nc(-c2ccc(N3CCC4(CC3)CN(C3CCC3)C4)cc2)cc2c1nc(-c1ccc(S(C)(=O)=O)cc1)n2C [Example 74, 6-(4-(2-cyclobutyl-2,7-diazaspiro[3.5]nonan-7-yl)phenyl)-1,4-dimethyl-2-(4-(methylsulfonyl)phenyl)-1H-imidazo[4,5-c]pyridine] | 3700 nM | 38 nM | 1100 nM
3 | Cc1nc(-c2ccc(CN3CCN(C(C)C)CC3)cc2)cc2c1nc(-c1ccc(S(C)(=O)=O)cc1)n2C [Example 5, 6-(4-((4-isopropylpiperazin-1-yl)methyl)phenyl)-1,4-dimethyl-2-(4-(methylsulfonyl)phenyl)-1H-imidazo[4,5-c]pyridine] | 22000 nM | 790 nM | 7200 nM
4 | COC1CCN(Cc2ccc(-c3ccc(-c4cc5c(nc(-c6ccc(S(C)(=O)=O)cc6)n5C)c(C)n4)cc3)nc2)CC1 [Example 50, 6-(4-(5-((4-methoxypiperidin-1-yl)methyl)pyridin-2-yl)phenyl)-1,4-dimethyl-2-(4-(methylsulfonyl)phenyl)-1H-imidazo[4,5-c]pyridine] | > 50000 nM | 530 nM | 1100 nM
5 | Cc1nc(-c2ccc(N3C[C@H]4CN(CC(C)C)C[C@H]4C3)cc2)cc2c1nc(-c1ccc(S(C)(=O)=O)cc1)n2C [Example 68, 6-(4-((3aR,6aS)-5-isobutylhexahydropyrrolo[3,4-c]pyrrol-2(1H)-yl)phenyl)-1,4-dimethyl-2-(4-(methylsulfonyl)phenyl)-1H-imidazo[4,5-c]pyridine] | 3100 nM | 32 nM | 2000 nM
6 | COc1cc(-c2nc3c(C)nc(-c4ccc(N5CCN(CC6CC6)CC5)cc4)cc3n2C)cn2ncnc12 [Example 11, 6-(6-(4-(4-(cyclopropylmethyl)piperazin-1-yl)phenyl)-1,4-dimethyl-1H-imidazo[4,5-c]pyridin-2-yl)-8-methoxy-[1,2,4]triazolo[1,5-a]pyridine] | > 50000 nM | 420 nM | 1100 nM
7 | Cc1nc(-c2ccc(CN3CCC(N(C)C)CC3)cc2)cc2c1nc(-c1ccc(S(C)(=O)=O)cc1)n2C [Example 45, 1-(4-(1,4-dimethyl-2-(4-(methylsulfonyl)phenyl)-1H-imidazo[4,5-c]pyridin-6-yl)benzyl)-N,N-dimethylpiperidin-4-amine] | 4900 nM | 72 nM | 1000 nM
8 | Cn1c(-c2ccc(S(C)(=O)=O)cc2)nc2c(C(F)(F)F)nc(C3=CCN(C4CCN(CC(C)(C)O)CC4)CC3)cc21 [Example 37, 2-methyl-1-(4-(4-(1-methyl-2-(4-(methylsulfonyl)phenyl)-4-(trifluoromethyl)-1H-imidazo[4,5-c]pyridin-6-yl)-3,6-dihydropyridin-1(2H)-yl)piperidin-1-yl)propan-2-ol] | > 50000 nM | 1100 nM | 13000 nM
9 | Cc1nc(-c2ccc(N3CCC4(CC3)CN(C(C)C)C4)cc2)cc2c1nc(-c1ccc(S(C)(=O)=O)cc1)n2C [Example 72, 6-(4-(2-isopropyl-2,7-diazaspiro[3.5]nonan-7-yl)phenyl)-1,4-dimethyl-2-(4-(methylsulfonyl)phenyl)-1H-imidazo[4,5-c]pyridine] | 6000 nM | 160 nM | 650 nM
10 | COc1ccc(-c2nc3cnc(-c4ccc(N5CC6(CN(CC(C)C)C6)C5)cc4)cc3n2C2CC2)cc1OC [Example 85, 1-cyclopropyl-2-(3,4-dimethoxyphenyl)-6-(4-(6-isobutyl-2,6-diazaspiro[3.3]heptan-2-yl)phenyl)-1H-imidazo[4,5-c]pyridine] | 2500 nM | 170 nM | 3200 nM
11 | COc1ccc(-c2nc3cnc(-c4ccc(N5CC6(C5)CN(C(C)C)C6)cc4)cc3n2C2CC2)cc1OC [Example 84, 1-cyclopropyl-2-(3,4-dimethoxyphenyl)-6-(4-(6-isopropyl-2,6-diazaspiro[3.3]heptan-2-yl)phenyl)-1H-imidazo[4,5-c]pyridine] | 2200 nM | 180 nM | 4400 nM
12 | Cc1nc(C2CCN(C3CCN(CC(C)(C)O)CC3)CC2)cc2c1nc(-c1ccc(S(C)(=O)=O)cc1)n2C [Example 40, 1-(4-(1,4-dimethyl-2-(4-(methylsulfonyl)phenyl)-1H-imidazo[4,5-c]pyridin-6-yl)-[1,4′-bipiperidin]-1′-yl)-2-methylpropan-2-ol] | > 50000 nM | 120 nM | 9100 nM
